Measurements from US20220017486A1, “DOCK1-INHIBITING COMPOUND AND USE THEREOF” (KYUSHU UNIVERSITY, NATIONAL UNIVERSITY CORPORATION, priority 2018, published 2022).

Assays:
[1] = target: T1, DOCK1 (DHR-2 domain) (Homo sapiens, UniProt Q14185); assay: In vitro GEF assay: Rac activation by DOCK1 DHR-2 domain; assay type: biochemical, mice and humans; conditions: in words; for selective inhibitory activity against DOCK1 versus DOCK2: GEF assay DOCK1 vs DOCK2 DHR-2 domain; for DOCK1-inhibiting activity compared with TBOPP / selective inhibitory activity against DOCK1 compared to TBOPP: GEF assay
T1 construct: polypeptide fragments corresponding to the DHR-2 domain of DOCK1 or DOCK2 from mice and humans; Histidine-SUMO (N); made in house; host or cells: E. coli Arctic express (DE3)
T1 sequence (Q14185 1207-1617 limits assumed): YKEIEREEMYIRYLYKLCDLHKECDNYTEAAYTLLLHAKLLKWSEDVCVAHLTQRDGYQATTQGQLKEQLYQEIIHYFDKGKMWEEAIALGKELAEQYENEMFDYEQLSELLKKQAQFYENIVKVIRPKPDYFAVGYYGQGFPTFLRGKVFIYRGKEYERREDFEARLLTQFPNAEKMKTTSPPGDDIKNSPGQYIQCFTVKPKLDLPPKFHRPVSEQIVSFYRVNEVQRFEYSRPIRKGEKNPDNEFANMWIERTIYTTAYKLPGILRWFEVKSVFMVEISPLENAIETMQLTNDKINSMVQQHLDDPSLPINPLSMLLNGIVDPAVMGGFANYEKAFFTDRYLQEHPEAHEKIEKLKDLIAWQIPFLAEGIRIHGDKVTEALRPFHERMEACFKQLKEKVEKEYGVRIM
Description: DOCK1 and DOCK2, i.e., DOCK-A subfamily members, both activate Rac by catalyzing the GTP-GDP exchange reaction for Rac via their DHR-2 domains. Therefore, in this Pharmacological Test, the inhibitory effect of the compounds of the present invention on Rac activation by DOCK1 or DOCK2 was assessed in an in vitro GEF assay by using polypeptide fragments corresponding to the DHR-2 domain of DOCK1 or DOCK2 from mice and humans. The in vitro GEF assay was performed using a labeled GTP (Bodipy-FL-GTP, Invitrogen), which has a property of increasing the fluorescence intensity when bound to Rac.
The polypeptide fragments corresponding to the DHR-2 domain of DOCK1 or DOCK2 were prepared by expression in E. coli Arctic express (DE3) cells as N-terminal. Histidine-SUMO tag-fused recombinant proteins, followed by purification by affinity column chromatography on nickel-NTA columns.
Rac was prepared by expression in E. coli BL21 (DE3) cells as an N-terminal GST tag-fused recombinant protein, followed by purification by affinity column chromatography on glutathione-Sepharose columns.
Each of the polypeptide fragments corresponding to the DHR-2 domain of DOCK1 or DOCK2, and a predetermined concentration of each test compound (the compounds of the present invention: 33 types of compounds; and comparative compound: TBOPP) dissolved in DMSO were incubated in a reaction solution A (pH 7.0), which contained 20 mM of MES-NaOH, 150 mM of NaCl, 10 mM of MgCl2, and 20 μM of GDP for 20 minutes at room temperature while being shielded from light to thus prepare GEF pretreated products. The final concentration of DMSO was adjusted to 1 mass % in all of the test samples. For a control test, a GEF pretreated product (control) was prepared by incubation in the same manner using DMSO with no test compounds, instead of the DMSO used above in which each test compound was dissolved.
Separately, Rac was added to the reaction solution A (pH 7.0) to a concentration of 15 μM, and was allowed to stand on for 30 min to form a GDP-Rac complex. Bodipy-FL-GTP was added to a concentration of 3.6 μM to 100 μL of the reaction solution A that contained the thus-prepared GDP-Rac complex, and equilibrated at 30° C. for 2 minutes. After equilibration, 50 μL of the GEF pretreated product prepared as described above was added and reacted at 30° C.
Changes in fluorescence intensity of Bodipy-FL-GTP in the reaction solutions were monitored using an EnSpire spectrofluorometer (Perkin Elmer) (excitation wavelength: 488 nm, fluorescence wavelength: 514 nm). The measured values were corrected so that the fluorescence intensity at the beginning of the reaction (0 sec) was 0. Then, an approximate curve (hyperbola) was obtained by plotting the calculated correction values on the y-axis and the time (t) on the x-axis using GraphPad Prism5 (GraphPad software), and the slope at t=0 to 10 seconds was defined as the initial velocity of the guanine nucleotide exchange reaction. The IC50 value was calculated taking the initial reaction velocity of the control, to which only a solvent (DMSO) was added, as 100%.
Based on the obtained results, columns A and B of FIG. 1, FIG. 2, FIG. 3-1, and FIG. 3-2 show the results evaluating the inhibitory effect on Rac activation by DOCK1 (DHR-2 domain) (IC50 value), and DOCK1-selective inhibitory effect (DOCK1/DOCK2 selectivity) of each test compound. The inhibitory effect on Rac activation by DOCK1 (DHR-2 domain) (IC50 value) was determined from the reaction inhibition curve plotted using values of Rac activation by the DOCK1 DHR-2 domain in the presence of various concentrations of the test compounds, taking the values of the control as 100%. […]

[2] = system: mouse lung carcinoma cell line (3LL cells); assay: Cell invasion inhibition assay (Matrigel invasion chamber); assay type: cell-based; conditions: in words
Description: In this Pharmacological Test, the inhibitory effect of each test compound on cell invasion response was evaluated using a mouse lung carcinoma cell line (3LL cells), a mouse pancreatic cancer cell line (PANC02 cells), and a human breast cancer cell line (MDA-MB-157 cells). Of these, the mouse lung carcinoma cell line (3LL) is a cancer cell line with mutant Ras (K-Ras (G12C)), and the human breast cancer cell line (MDA-MB-157) is a cancer cell line with mutant Rac (Rac1 (P29S)). The experiments were performed in BD BioCoat Matrigel invasion chambers (BD Biosciences).
Specifically, an upper chamber with a Matrigel-coated membrane insert (8 μm pores) at the bottom was equilibrated with DMEM (serum-free medium) for 120 minutes. Thereafter, 300 μL of a suspension of a cancer cell line in DMEM (serum-free) was placed in the upper chamber while 500 μL of DMEM (with 10 mass % FCS) was placed in the lower chamber. Each test compound dissolved in DMSO at a predetermined concentration was added to both the culture media in the upper and lower chambers. As a control, DMSO alone was added to both the culture media in the upper and lower chambers. In all of the experiments, the final DMSO concentration in the culture media was adjusted to 0.2 mass %.
The resulting products were cultured under 5% CO2 at 37° C. for 22 hours (3LL and PANC02 cells) or 48 hours (MDA-MB-157 cells). Then, the upper chamber was removed, and the culture medium was removed. Thereafter, non-invading cells remaining in the upper chamber were removed using a cotton swab, and the cells remaining outside the bottom of the upper chamber (cells that had invaded into the Matrigel, and passed through the membrane insert) were stained with Diff-Quick (Sysmex). After staining, the membrane inserts with Matrigel were cut out using a scalpel to prepare slides, and the number of invading cells was counted under an optical microscope.
The results were evaluated based on percent cell invasion (%: Invasion) and percent inhibition (%: Inhibition). The percent cell invasion was obtained by converting the number of invading cells in the presence of each test compound into a percentage, taking the number of invading cells in the control test, in which DMSO was added alone, as 100%; and the percent inhibition was obtained by deducting the percent cell invasion from 100.

| Structure (SMILES) | selective inhibitory activity against DOCK1 versus DOCK2 [1] | further results |
| --- | --- | --- |
| O=C(Cn1cc(S(=O)(=O)N2CCCC2)ccc1=O)c1ccc(-c2cccc(C(F)(F)F)c2)cc1O [AK-15, 1-(2-(3-hydroxy-3′-(trifluoromethyl)-[1,1′-biphenyl]-4-yl)-2-oxoethyl)-5-(pyrrolidin-1-yl-sulfonyl)pyridin-2(1H)-one] | higher selective inhibitory activity against DOCK1 than against DOCK2 |  |
| O=c1ccc(S(=O)(=O)N2CCCC2)cn1CC(O)c1ccc(-c2cccc(C(F)(F)F)c2)cc1O (stereo not drawn) [AK-16, 1-(2-hydroxy-2-(3-hydroxy-3′-(trifluoromethyl)-[1,1′-biphenyl]-4-yl)ethyl)-5-(pyrrolidin-1-yl-sulfonyl)pyridin-2(1H)-one] |  | DOCK1-inhibiting activity compared with TBOPP [1]: slightly lower DOCK1-inhibiting activity; selective inhibitory activity against DOCK1 compared to TBOPP [1]: higher selective inhibitory activity against DOCK1 |
| CC1(C)Oc2cc(-c3cccc(C(F)(F)F)c3)ccc2C(Cn2cc(S(=O)(=O)N3CCCC3)ccc2=O)O1 (stereo not drawn) [AK-17, 1-((2,2-dimethyl-7-(3-(trifluoromethyl)phenyl)-4H-benzo[d][1,3]dioxin-4-yl)methyl)-5-(pyrrolidin-1-yl-sulfonyl)pyridin-2(1H)-one] | higher selective inhibitory activity against DOCK1 than against DOCK2 |  |
| CCCCCCOc1cc(-c2cccc(C(F)(F)F)c2)ccc1C(=O)C(CCCCCC)n1cc(S(=O)(=O)N2CCCC2)ccc1=O (stereo not drawn) [AK-23, 1-(1-(3-(hexyloxy)-3′-(trifluoromethyl)-[1,1′-biphenyl]-4-yl)-1-oxooctan-2-yl)-5-(pyrrolidin-1-yl-sulfonyl)pyridin-2(1H)-one] | higher selective inhibitory activity against DOCK1 than against DOCK2 |  |
| O=C(Cn1cc(S(=O)(=O)N2CCCC2)ccc1=O)c1ccc(-c2cccc(C(F)(F)F)c2)cc1OCCc1ccccc1 [AK-24, 1-(2-oxo-2-(3-phenethoxy-3′-(trifluoromethyl)-[1,1′-biphenyl]-4-yl)ethyl)-5-(pyrrolidin-1-yl-sulfonyl)pyridin-2(1H)-one] | higher selective inhibitory activity against DOCK1 than against DOCK2 |  |
| O=S(=O)(c1cc(CO)n(CC(O)c2ccc(-c3cccc(C(F)(F)F)c3)cc2)c1)N1CCCC1 (stereo not drawn) [HS-14, 2-(2-(hydroxymethyl)-4-(pyrrolidin-1-yl-sulfonyl)-1H-pyrrol-1-yl)-1-(3′-(trifluoromethyl)-[1,1′-biphenyl]-4-yl)ethan-1-ol] | higher selective inhibitory activity against DOCK1 than against DOCK2 | DOCK1-inhibiting activity compared with TBOPP [1]: slightly lower DOCK1-inhibiting activity; selective inhibitory activity against DOCK1 compared to TBOPP [1]: higher selective inhibitory activity against DOCK1 |
| CCC(=O)c1cc(S(=O)(=O)N2CCCC2)cn1CC(=O)c1ccc(-c2cccc(C(F)(F)F)c2)cc1 [HS-17, 1-(1-(2-oxo-2-(3′-(trifluoromethyl)-[1,1′-biphenyl]-4-yl)ethyl)-4-(pyrrolidin-1-yl-sulfonyl)-1H-pyrrol-2-yl)propan-1-one] |  | percent cell invasion inhibition compared with TBOPP [2]: higher percent cell invasion inhibition than TBOPP |
| CC(=O)Oc1cc(-c2ccc(-c3cccc(C(F)(F)F)c3)cc2)cn2cc(S(=O)(=O)N3CCCC3)cc12 [HS-20, 2-(pyrrolidin-1-yl-sulfonyl)-6-(3′-(trifluoromethyl)-[1,1′-biphenyl]-4-yl)-indolizin-8-yl acetate] | higher selective inhibitory activity against DOCK1 than against DOCK2 |  |
| O=C(Cn1cc(S(=O)(=O)N2CCC(c3ccc(-c4ccccc4)cc3)CC2)ccc1=O)c1ccc(-c2cccc(C(F)(F)F)c2)cc1 [KS-43, 5-((4-([1,1′-biphenyl]-4-yl)piperidin-1-yl)sulfonyl)-1-(2-oxo-2-(3′-(trifluoromethyl)-[1,1′-biphenyl]-4-yl)ethyl)pyridin-2(1H)-one] | higher selective inhibitory activity against DOCK1 than against DOCK2 |  |
| O=C(Cn1cc(S(=O)(=O)N2CCC(c3ccc(-c4ccc5c(c4)Cc4ccccc4-5)cc3)CC2)ccc1=O)c1ccc(-c2cccc(C(F)(F)F)c2)cc1 [KS-46, 5-((4-(4-(9H-fluoren-2-yl)phenyl)piperidin-1-yl)sulfonyl)-1-(2-oxo-2-(3′-(trifluoromethyl)-[1,1′-biphenyl]-4-yl)ethyl)pyridin-2(1H)-one] | higher selective inhibitory activity against DOCK1 than against DOCK2 |  |
| O=C(Cn1cc(S(=O)(=O)N2CCC(c3ccc(-c4c5ccccc5cc5ccccc45)cc3)CC2)ccc1=O)c1ccc(-c2cccc(C(F)(F)F)c2)cc1 [KS-47, 5-((4-(4-(anthracen-9-yl)phenyl)piperidin-1-yl)sulfonyl)-1-(2-oxo-2-(3′-(trifluoromethyl)-[1,1′-biphenyl]-4-yl)ethyl)pyridin-2(1H)-one] | higher selective inhibitory activity against DOCK1 than against DOCK2 |  |
| CN(C)C(=O)c1cc(S(=O)(=O)N2CCCC2)cn1CC(=O)c1ccc(-c2cccc(C(F)(F)F)c2)cc1 [RT-23, N,N-dimethyl-1-(2-oxo-2-(3′-(trifluoromethyl)-[1,1′-biphenyl]-4-yl)ethyl)-4-(pyrrolidin-1-yl-sulfonyl)-1H-pyrrole-2-carboxamide] | higher selective inhibitory activity against DOCK1 than against DOCK2 |  |
